The values that follow come from patent publication US4072574A, “System for in vitro assay for mutagenicity and/or carcinogenicity of chemicals or other exogenous agents” (priority 1976, dated 1978).

Series [1] has as its system AMV DNA polymerase. The series is described as follows: Fidelity of in vitro DNA synthesis (error frequency) with AMV DNA polymerase copying synthetic polynucleotide templates. Particulars: for Class: Table 1, classes 1-3 not defined. The text has this:
In this invention, the ability of carcinogens to decrease the fidelity of in vitro DNA synthesis will be used to screen for carcinogenic or mutagenic agents. The system uses synthetic polynucleotides of defined composition which may be copied in the test tubes with procaryotic, eucaryotic or viral DNA polymerases. The use of synthetic polynucleotides of defined composition allows the measurement of the simultaneous incorporation of the correct, complementary nucleotide and an incorrect, non-complementary nucleotide. The correct nucleotide is labeled with [α-^32 P] of low specific activity and the incorrect nucleotide is labeled with [^3 H] of high specific activity. Through this double labeled reaction it is possible to determine the simultaneous incorporation of both nucleotides and thus to determine an error frequency. The error frequency may be defined as the ratio of the incorrect/correct nucleotide incorporation. Agents which increase this error frequency may be scored as positive. […] Agents which score positive would be checked using different templates to underscore the positive results. In this system different polymerases will be used as well as different templates. One would expect that most carcinogens would change the fidelity of DNA synthesis with different polymerases as well as with different templates though this need not be the case.
Each assay will consist of a polymerase, a polynucleotide template that only contains one or two nucleotides, a complementary nucleotide and a non-complementary nucleotide as well as magnesium. Both of the nucleotides will be labeled by radioactive precursors and the ratio between the two is to be used for a measure of error frequency in the system. In instances where a template requires two complementary nucleotides, only one will be radioactively labeled.
Reactions (total volume 0.05 ml) which measured complementary nucleotide incorporation contained 50 mM Tris-HCL (pH 8.0), 20 mM KCl, 5 mM dithiothreitol, 5 mM MgCl2, 2μg BSA, […] [α-^32 P] -dTTP (60 dpm/pmole), 1μg poly (A).oligo (dT) (1:1.5 mass ratio), and 0.45 μg of AMV DNA polymerase. For simultaneous quantitation of complementary and non-complementary nucleotide incorporation each reaction was modified to contain 26μM [α-^32 P]dTTP (12 dpm/pmole) and 23μM [^3 H]-dCTP (50,000 dpm/pmole). […] Metals were added directly to the reaction mixture as aqueous solutions of chloride salts. All reactions were incubated for 60 min. at 37° C. Incorporation of radioactive nucleotides into an acid-insoluble and alkali-resistant product was determined by using the precipitation-solubilization procedure as described by Battula and Loeb. All experiments were performed in triplicate and the averages were determined.
In order to determine the effect of different metals on the accuracy of DNA replication, metal cations were added as chloride salts directly to the polymerase reaction. In these experiments, poly (A).oligo (dT) was the template-primer and the simultaneous incorporation of complementary nucleotide, [α-^32 P]-dTMP, and the non-complementery nucleotide, [^3 H]-dCMP, was determined.
The effect of metal salts on the fidelity of DNA synthesis was examined by testing each of the metal salts at a minimum of seven different concentrations.

The subject of series [2] is AMV DNA polymerase. Briefly: Metal requirements for catalysis by AMV DNA polymerase. Conditions: poly (A).oligo (dT). It is filed as biochemical, avian myeloblastosis virus. As to the method: (§1) All known DNA polymerases require either Mg^2+ or Mn^2+ as an added divalent cation for activity. AMV DNA polymerase used Mg^2+ as an added divalent cation and the maximum rate of polymerization with poly (A).oligo (dT) was attained at 5 mM Mg^2+. […] Thymidine monophosphate incorporation with Be^2+ was less than 0.3% of that obtained with 5 mM Mg^2+.

The conditions of series [3]: species as printed in the value; cited from earlier work.
The conditions of series [4]: known status of the compound; cited from earlier work.
For series [5], the system named is several DNA polymerases. It is filed as biochemical. Particulars: preliminary results. As to the method: as §1
Series [6] deals with sea urchin nuclear DNA polymerase. The series is described as follows: Fidelity of DNA synthesis with sea urchin nuclear DNA polymerase. The class given is biochemical. Conditions: template poly (dA).oligo (dT). The source says:
It is one of 15 carcinogens officially listed by the U.S. government as possibly being carcinogenic in humans.

Setting [7] is: 2 mM added cation + Mg^2+ 5 mM, poly (A).oligo (dT).
Where [8] appears, read: 5 mM added cation + Mg^2+ 5 mM, poly (A).oligo (dT).
The mark [9] stands for this setting: 10 mM added cation + Mg^2+ 5 mM, poly (A).oligo (dT).
The mark [10] stands for this setting: Beryllium Chloride 1 mM, poly (A) . oligo (dT), non-complementary rGTP.
Setting [11] is: Beryllium Chloride 1 mM, poly (C) . oligo (dG), non-complementary dATP.
The mark [12] stands for this setting: Beryllium Chloride 1 mM, poly d(A-T), non-complementary dCTP.
Setting [13] is: Beryllium Chloride 2 mM, poly (A) . oligo (dT), non-complementary rGTP.
Setting [14] is: Beryllium Chloride 2 mM, poly (C) . oligo (dG), non-complementary dATP.
The mark [15] stands for this setting: Beryllium Chloride 3 mM, poly d(A-T), non-complementary dCTP.
The mark [16] stands for this setting: Beryllium Chloride 4 mM, poly (C) . oligo (dG), non-complementary dATP.
Setting [17] is: Beryllium Chloride 5 mM, poly (A) . oligo (dT), non-complementary rGTP.
[18] abbreviates: Beryllium Chloride 5 mM, poly (C) . oligo (dG), non-complementary dATP.
Setting [19] is: Beryllium Chloride 5 mM, poly d(A-T), non-complementary dCTP.
The mark [20] stands for this setting: Beryllium Chloride 10 mM, poly (A) . oligo (dT), non-complementary rGTP.

As for `[Be+2].[Cl-].[Cl-]` [BeCl2, beryllium chloride], the “Complementary Nucleotide (pmoles dTMP)” value amounted to 291 pmol in series [1] (setting [7]), 133 pmol in series [1] (setting [8]) and 8.6 pmol in series [1] (setting [9]). Further, the “Non-Complementary Nucleotide (pmoles dCMP)” value amounted to 0.372 pmol in series [1] (setting [7]), 0.294 pmol in series [1] (setting [8]) and 0.114 pmol in series [1] (setting [9]). Moreover, the “Error Frequency” value in series [1] (2 mM added cation + Mg^2+ 5 mM, poly (A).oligo (dT), dCMP/dTMP) is listed as 1/782; in series [1] (5 mM added cation + Mg^2+ 5 mM, poly (A).oligo (dT), dCMP/dTMP) it was 1/453; in series [1] (10 mM added cation + Mg^2+ 5 mM, poly (A).oligo (dT), dCMP/dTMP) it was 1/75; in series [1] (setting [10]), 1/6104; in series [1] (setting [11]) it was 1/1649; in series [1] (setting [12]) it was 1/1306. The “Error Frequency” value is listed as 1/2704 in series [1] (setting [13]); 1/1025 in series [1] (setting [14]); 1/979 in series [1] (setting [15]); 1/919 in series [1] (setting [16]); 1/487 in series [1] (setting [17]); 1/831 in series [1] (setting [18]). Moreover, the “Error Frequency” value was 1/689 in series [1] (setting [19]) and 1/149 in series [1] (setting [20]). Besides, the “Complementary Nucleotide Incorporation” value is 568 pmol in series [1] (setting [10]); 181 pmol in series [1] (setting [11]); 209 pmol in series [1] (setting [12]); 503 pmol in series [1] (setting [13]); 81 pmol in series [1] (setting [14]); 137 pmol in series [1] (setting [15]). In addition, the “Complementary Nucleotide Incorporation” value in series [1] (setting [16]) is 57 pmol; in series [1] (setting [17]), 128 pmol; in series [1] (setting [18]) it was 64 pmol; in series [1] (setting [19]), 97 pmol; in series [1] (setting [20]) it was 52 pmol. Also, the “Non-Complementary Nucleotide Incorporation” value was 0.093 pmol in series [1] (setting [10]); 0.110 pmol in series [1] (setting [11]); 0.160 pmol in series [1] (setting [12]); 0.186 pmol in series [1] (setting [13]); 0.079 pmol in series [1] (setting [14]); 0.140 pmol in series [1] (setting [15]). Moreover, the “Non-Complementary Nucleotide Incorporation” value in series [1] (setting [16]) stood at 0.062 pmol; in series [1] (setting [17]) it was 0.263 pmol; in series [1] (setting [18]) it was 0.077 pmol; in series [1] (setting [19]) it was 0.140 pmol; in series [1] (setting [20]), 0.349 pmol. Further, the Class in series [1] (template poly (A).oligo (dT)) was found to be 1. Also, in series [1] (poly (A).oligo (dT), dTMP complementary, dCMP non-complementary), the “effect on error frequency (in words)” value was “error frequency increased”. In addition, in series [1] (template poly (A).oligo (dT)), the “Metal Concentration which yielded the largest observed change in error rate” value stood at 10 mM. The “effect on the fidelity of DNA synthesis (in words)” value (“effect on the fidelity” below) in series [1] (various templates) was “decreases the fidelity”. The “Thymidine monophosphate incorporation relative to that obtained with 5 mM Mg^2+” value in series [2] (Be^2+ in the absence of Mg^2+, 60 min) is “less than 0.3%”. In addition, the “ability to substitute for Mg^2+ as added divalent cation” value in series [2] (absence of Mg^2+, Be^2+ up to 15 mM) is on record as “did not result in detectable poly (dT) synthesis”. Besides, in series [3], the carcinogenicity in animals entry was “induces pulmonary carcinomas in monkey and osteogenic sarcomas in rabbits”. Further, the “Carcinogen or Mutagen” value in series [4] is recorded as “+”.
With `[Cl-].[Cl-].[Co+2]` [CoCl2], the metal activator function entry in series [5] is reported as “serve as metal activators with several DNA polymerases”. In addition, in series [1] (template poly (C).oligo (dG)), the Class amounted to 1 and the “Metal Concentration which yielded the largest observed change in error rate” value is 4 mM. Also, the “effect on the fidelity” value in series [1] (various templates) was “alter the fidelity”. Besides, the “Carcinogen or Mutagen” value in series [4] is recorded as “+”.
Consider `[Cl][Ni][Cl]` [NiCl2], for which, in series [5], the metal activator function result was “serve as metal activators with several DNA polymerases”. In series [1] (template poly (C).oligo (dG)), the Class is recorded as 1 and the “Metal Concentration which yielded the largest observed change in error rate” value is recorded as 8 mM. In addition, the “effect on the fidelity” value in series [1] (various templates) is “alter the fidelity”.
On to `O=C1CCO1` [β-propiolactone], for which the “effect on the fidelity” value in series [1] (template poly (dA).oligo (dT)) and in series [6] was “decreases the fidelity” each time. Moreover, the carcinogenicity in animals entry in series [3] was “carcinogen in mice, rats and hamsters”.
